The values below come from patent publication US20150329558A1, “FUSED HETEROCYCLIC COMPOUNDS AS ION CHANNEL MODULATORS” (Gilead Sciences, Inc., priority 2011, published 2015).

Structures are written as SMILES. Where two headings read alike, the source gives them in different places.

A short description of data set [1]: Microsomal stability assay, rat. The format is in vitro ADME. The note with it: metabolic stability, rat liver microsomes 0.5 mg/mL, substrate 3 uM. In outline:
(§1)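 Liver microsomes at 0.5 mg/mL protein in 100 mM KPO4 buffer, incubated with 3 uM compound and NADPH-regenerating system, run in duplicate. Samples taken at 2, 12, 25, 45 and 65 min and quenched in MeOH/ACN/water before analysis.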

The target of data set [2] is wild-type human cardiac sodium channel, hNav1.5 (peak INa) (Homo sapiens, UniProt Q14524). Kind of data set: Peak INa screening assay (tonic and use-dependent block). Format: cell-based. Here is the method:
The late sodium current (Late INa) and peak sodium current (Peak INa) assays are performed on an automated electrophysiology platform, QPatch 16× (Sophion Bioscience, Copenhagen, Denmark), which uses the whole cell patch clamp technique to measure currents through the cell membrane of up to 16 cells at a time. The assay uses an HEK293 (human embryonic kidney) cell line heterologously expressing the wild-type human cardiac sodium channel, hNav1.5, purchased from Millipore (Billerica, Mass.). No beta subunits were coexpressed with the Na channel alpha subunit. Cells are maintained with standard tissue culture procedures and stable channel expression is maintained with 400 μg/mL Geneticin in the culture medium. […] Experiments are carried out at 23-25° C. For both the Late INa and Peak INa assays, series resistance compensation is set to 100% and series resistance and whole-cell compensation are performed automatically. Currents are digitized at 25 kHz and low-pass filtered at 12 kHz and 10 kHz for the late and peak INa assays, respectively. Currents through open sodium channels are automatically recorded and stored in the Sophion Bioscience Oracle database (Sophion Bioscience, Copehagen, Denmark). Analysis is performed using QPatch Assay and database software and data are compiled in Excel. Compound stocks are routinely made by the Gilead Sample Bank in plastic vials to 10 mM in dimethyl sulfoxide (DMSO). In some cases, when compounds are not soluble in DMSO, they are made in 100% ethanol. Stocks are sonicated as necessary. […] The intracellular solution used to perfuse the inside of the cells for both the Late INa and Peak INa assays contains: 120 mM CsF, 20 mM CsCl, 5 mM EGTA, 5 mM HEPES and pH adjusted to 7.4 with CsOH. Compounds are diluted in extracellular solution to 1 μM in glass vials and then transferred to glass well plates before robotic addition to the cells. […] Compounds were also evaluated for their effect in several other assays, including their effect on Peak INa. Good separation between the concentrations of test compound to reduce late and peak INa is beneficial to enable separation of the desired effect to reduce late INa-induced electrical and mechanical dysfunction from the undesired effect to reduce peak INa, which can lead to slowing or block of conduction of electrical excitation in the heart. It is contemplated that the compounds of Formula I avoid significant block of peak INa. Since the peak INa in the cells used herein can be very large, introducing artifacts in the recording, the concentration of Na^+ in the bath can be reduced to 20 mM and a nonpermeant cation added to compensate for the Na^+ that was removed to maintain the osmolarity and ionic strength of the solution (see solution details below). Analysis of peak INa generally requires correction for rundown before determining the % block of peak current by the tested compound. […] A low stimulation frequency of 0.1 Hz was used to determine the effect of the test compound when the channel spent most of the time in the resting (closed) state and provides information about Tonic Block (TB). A higher stimulation frequency (3 Hz) was used to measure block of the channel when it spent more time in the activated and inactivated states and provided a measure of Use-Dependent Block (UDB). Use-dependent block refers to the accumulation of block with increased frequency of channel activation. Block of cardiac peak INa by compounds of this invention is increased with an increase in the frequency of stimulation from 0.1 to 1-5 Hz (frequencies encountered either in the normal heart or during tachycardia). It is therefore expected that reduction of peak INa by compounds of this invention will be greater at high heart rates, such as those during tachyarrhythmias, than at normal heart rates. […]

The target in data set [3] is wild-type human cardiac sodium channel, hNav1.5 (late INa) (Homo sapiens, UniProt Q14524). Kind of data set: Late INa screening assay (QPatch whole cell patch clamp). The format is cell-based. The essentials:
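Compounds tested at 1 μM final in extracellular solution against tefluthrin (10 μM)-enhanced late current. Automated patch clamp (23-25° C) on HEK293 expressing alpha subunit alone: −120 mV holding, 250 ms depolarization to −20 mV every 10 s. Read-out is percent inhibition of mean current over 225–250 ms.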

Data set [4] in a line: Microsomal stability assay, dog. Format: in vitro ADME. The conditions noted are these: metabolic stability, dog liver microsomes 0.5 mg/mL, substrate 3 uM. The essentials: as §1
On the technique in general: Liver microsomes are a subcellular fraction often used to study metabolism.

Data set [5] can be described thus: Microsomal stability assay, human. The format is in vitro ADME. The conditions noted are these: metabolic stability, human liver microsomes 0.5 mg/mL, substrate 3 uM. The essentials:
as §1

Where [6] appears, read: tonic block of peak INa, 0.1 Hz, 1 μM, read-out: Peak TB 1 μM.
Setting [7] is: use-dependent block of peak INa, 3 Hz, 1 μM, read-out: Peak UDB 1 μM.
Where [8] appears, read: percent block of late INa, compound at 1 μM, 10 μM Tefluthrin, HEK293 hNav1.5, read-out: Late INa 1 μM.
[9] abbreviates: % inhibition at 1 μM, tonic block, read-out: NAv1.5*-PEAK-TB-.
Setting [10] is: % inhibition at 1 μM, use-dependent block 3 Hz, read-out: NAv1.5*-PEAK-UDB-3 HZ-.
The mark [11] stands for this setting: % inhibition at 1 μM, read-out: NAv1.5*-LATE-.

Chain of wild-type human cardiac sodium channel, hNav1.5 (late INa) (Q14524 whole entry): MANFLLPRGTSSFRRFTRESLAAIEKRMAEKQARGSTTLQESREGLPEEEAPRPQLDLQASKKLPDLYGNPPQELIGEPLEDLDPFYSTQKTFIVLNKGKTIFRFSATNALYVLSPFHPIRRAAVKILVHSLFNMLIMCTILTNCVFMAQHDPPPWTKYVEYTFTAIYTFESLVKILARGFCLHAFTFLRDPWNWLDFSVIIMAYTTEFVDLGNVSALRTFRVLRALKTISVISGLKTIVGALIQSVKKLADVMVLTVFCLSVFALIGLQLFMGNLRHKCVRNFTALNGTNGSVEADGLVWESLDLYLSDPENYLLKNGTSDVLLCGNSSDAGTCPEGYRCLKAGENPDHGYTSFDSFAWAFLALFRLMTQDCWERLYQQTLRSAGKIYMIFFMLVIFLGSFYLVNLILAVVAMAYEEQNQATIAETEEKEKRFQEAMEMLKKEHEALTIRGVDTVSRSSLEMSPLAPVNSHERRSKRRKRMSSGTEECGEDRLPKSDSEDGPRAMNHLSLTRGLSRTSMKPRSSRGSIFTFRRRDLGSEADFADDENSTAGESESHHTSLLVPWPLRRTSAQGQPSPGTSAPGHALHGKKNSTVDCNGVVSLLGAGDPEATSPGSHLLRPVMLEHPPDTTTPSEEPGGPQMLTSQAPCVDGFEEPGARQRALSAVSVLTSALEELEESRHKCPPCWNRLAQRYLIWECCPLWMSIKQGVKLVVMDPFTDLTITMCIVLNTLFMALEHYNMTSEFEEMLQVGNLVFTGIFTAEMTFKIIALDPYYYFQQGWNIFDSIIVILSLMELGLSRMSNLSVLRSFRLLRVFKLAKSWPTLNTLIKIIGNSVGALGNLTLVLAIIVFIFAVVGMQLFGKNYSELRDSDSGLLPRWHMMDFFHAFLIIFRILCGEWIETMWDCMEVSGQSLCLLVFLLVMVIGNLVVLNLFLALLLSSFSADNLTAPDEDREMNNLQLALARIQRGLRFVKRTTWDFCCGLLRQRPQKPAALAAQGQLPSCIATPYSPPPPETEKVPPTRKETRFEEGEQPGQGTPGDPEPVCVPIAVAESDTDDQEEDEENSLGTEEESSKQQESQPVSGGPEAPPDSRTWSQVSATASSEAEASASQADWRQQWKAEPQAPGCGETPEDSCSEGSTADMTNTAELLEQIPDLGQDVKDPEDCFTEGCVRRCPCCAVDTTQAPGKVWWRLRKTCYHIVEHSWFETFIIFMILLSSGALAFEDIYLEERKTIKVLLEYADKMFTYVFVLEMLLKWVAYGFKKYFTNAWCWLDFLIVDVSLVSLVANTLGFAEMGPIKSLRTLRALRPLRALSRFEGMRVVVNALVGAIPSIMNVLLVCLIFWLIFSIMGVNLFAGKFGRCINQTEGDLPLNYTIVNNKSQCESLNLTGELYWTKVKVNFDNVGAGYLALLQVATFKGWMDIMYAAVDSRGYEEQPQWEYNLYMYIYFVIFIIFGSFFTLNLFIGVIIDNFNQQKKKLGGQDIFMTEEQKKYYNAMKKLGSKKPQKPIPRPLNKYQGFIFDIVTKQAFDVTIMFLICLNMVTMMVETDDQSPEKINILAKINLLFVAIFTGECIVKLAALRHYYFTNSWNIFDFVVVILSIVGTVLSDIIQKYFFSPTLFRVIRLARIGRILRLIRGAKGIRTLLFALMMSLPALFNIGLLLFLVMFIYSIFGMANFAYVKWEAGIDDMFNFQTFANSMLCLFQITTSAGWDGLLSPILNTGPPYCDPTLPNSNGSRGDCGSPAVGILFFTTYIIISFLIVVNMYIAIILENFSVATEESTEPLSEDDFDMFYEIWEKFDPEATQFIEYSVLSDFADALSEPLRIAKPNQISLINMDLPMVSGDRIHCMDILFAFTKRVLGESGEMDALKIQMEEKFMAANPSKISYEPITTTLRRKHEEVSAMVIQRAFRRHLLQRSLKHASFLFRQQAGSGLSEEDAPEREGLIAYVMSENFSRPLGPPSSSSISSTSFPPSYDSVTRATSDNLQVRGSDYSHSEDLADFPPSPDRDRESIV
Chain of wild-type human cardiac sodium channel, hNav1.5 (peak INa) (Q14524 whole entry): as above

Regarding `O=c1c2cc(-c3ccc(OC(F)(F)F)cc3)ccc2cnn1CCOc1nccc(C2CC2)n1` [III-29, 2-(2-(4-cyclopropylpyrimidin-2-yloxy)ethyl)-7-(4-(trifluoromethoxy)phenyl)phthalazin-1 (2H)-one], in data set [1], the MS Rat THalf was found to be 26 min. For the same compound, the results for the inhibition at 1 µM in data set [2] (setting [6]), in data set [2] (setting [7]) and in data set [3] (setting [8]) were 10%, 9% and 58%, respectively. Besides, in data set [4], the MS Dog THalf worked out at 18 min. The MS Human THalf in data set [5] was determined as 19 min.

In turn, `COc1ccnc(Cn2ncc3ccc(-c4ccc(OC(F)(F)F)cc4)cc3c2=O)n1` [III-30, 2-((4-methoxypyrimidin-2-yl)methyl)-7-(4-(trifluoromethoxy)phenyl)phthalazin-1 (2H)-one] registered an MS Rat THalf in data set [1] of 70 min. In addition, the inhibition at 1 µM was 11% in data set [2] (setting [6]), 12% in data set [2] (setting [7]) and 56% in data set [3] (setting [8]). For the same compound, the MS Dog THalf in data set [4] worked out at 167 min. In data set [5], this compound displayed an MS Human THalf of 205 min.

Take `Cc1ccnn1CCn1ncc2ccc(-c3ccc(OC(F)(F)F)cc3)cc2c1=O` [III-32, 2-(2-(5-methyl-1H-pyrazol-1-yl)ethyl)-7-(4-(trifluoromethoxy)phenyl)phthalazin-1 (2H)-one]: the MS Rat THalf in data set [1] turned out to be 12 min. For the same compound, the inhibition at 1 µM in data set [2] (setting [6]) is 18%; in data set [2] (setting [7]) it was 23%; in data set [3] (setting [8]), 53%. This compound came in with an MS Dog THalf in data set [4] of 16 min. The compound also came in with an MS Human THalf in data set [5] of 20 min.

Turning to `O=c1c2cc(-c3ccc(OC(F)(F)F)cc3)ccc2cnn1CCOc1ncc(Cl)cn1` [III-37, 2-(2-(5-chloropyrimidin-2-yloxy)ethyl)-7-(4-(trifluoromethoxy)phenyl)phthalazin-1 (2H)-one], the MS Rat THalf in data set [1] is 96 min. Further, the inhibition at 1 µM in data set [2] (setting [6]) came out at 7%; in data set [2] (setting [7]), 4%; in data set [3] (setting [8]), 50%. In data set [4], this compound had an MS Dog THalf of 37 min. In data set [5], this compound came in with an MS Human THalf of 157 min.

Regarding `CC(Cn1ncc2ccc(-c3ccc(OC(F)(F)F)cc3)cc2c1=O)n1cccn1` (stereo not drawn) [III-38, 2-(2-(1H-pyrazol-1-yl)propyl)-7-(4-(trifluoromethoxy)phenyl)phthalazin-1 (2H)-one], the MS Rat THalf in data set [1] came to 24 min. The inhibition at 1 µM in data set [2] (setting [6]) was determined as 9%; in data set [2] (setting [7]), 11%; in data set [3] (setting [8]), 52%. The MS Dog THalf in data set [4] was 31 min. The compound also showed an MS Human THalf in data set [5] of 54 min.

`O=c1c2cc(-c3ccc(OC(F)(F)F)cc3)ccc2cnn1CCOc1cnccn1` [III-39, 2-(2-(pyrazin-2-yloxy)ethyl)-7-(4-(trifluoromethoxy)phenyl)phthalazin-1 (2H)-one] gave an MS Rat THalf in data set [1] of 30 min. Besides, the inhibition at 1 µM in data set [2] (setting [6]) amounted to 7%; in data set [2] (setting [7]), 0%; in data set [3] (setting [8]), 47%. In data set [4], this compound gave an MS Dog THalf of 14 min. In data set [5], this compound gave an MS Human THalf of 44 min.

Turning to `O=c1c2cc(-c3ccc(OC(F)(F)F)cc3)ccc2cnn1CCOc1ccccn1` [III-40, 2-(2-(pyridin-2-yloxy)ethyl)-7-(4-(trifluoromethoxy)phenyl)phthalazin-1 (2H)-one], the MS Rat THalf in data set [1] came to 62 min. The values for the inhibition at 1 µM in data set [2] (setting [6]), in data set [2] (setting [7]) and in data set [3] (setting [8]) were 4%, 2% and 51%, respectively. Moreover, the MS Dog THalf in data set [4] amounted to 56 min. In data set [5], the MS Human THalf worked out at 152 min.

In data set [1], `O=C(c1ccccn1)N1CCc2ccc(-c3ccc(C(F)(F)F)cc3)cc2C1` [IX-6, pyridin-2-yl(7-(4-(trifluoromethyl)phenyl)-3,4-dihydroisoquinolin-2(1H)-yl)methanone] returned an MS Rat THalf of 272 min. In addition, the figures for the inhibition at 1 µM in data set [2] (setting [6]), in data set [2] (setting [7]) and in data set [3] (setting [8]) were 28%, 37% and 62%, respectively. The compound also registered an MS Dog THalf in data set [4] of 313 min. The MS Human THalf in data set [5] was found to be 54 min.

The compound `O=C(c1ncccn1)N1CCc2ccc(-c3ccc(OC(F)(F)F)cc3)cc2C1` [IX-11, pyrimidin-2-yl(7-(4-(trifluoromethoxy)phenyl)-3,4-dihydroisoquinolin-2(1H)-yl)methanone] had an MS Rat THalf in data set [1] of 348 min. For the same compound, the inhibition at 1 µM in data set [2] (setting [9]) came to 17%; in data set [2] (setting [10]), 22%; in data set [2] (setting [6]), 17%; in data set [2] (setting [7]), 22%; in data set [3] (setting [11]) it was 44%; in data set [3] (setting [8]), 44%. The MS Dog THalf in data set [4] worked out at 332 min. This compound came in with an MS Human THalf in data set [5] of 145 min.

On to `O=C(c1ncccc1F)N1CCc2ccc(-c3ccc(C(F)(F)F)cc3)cc2C1` [IX-25, (3-fluoropyridin-2-yl)(7-(4-(trifluoromethyl)phenyl)-3,4-dihydroisoquinolin-2(1H)-yl)methanone], for which the MS Rat THalf in data set [1] was 170 min. In addition, the inhibition at 1 µM worked out at 28% in data set [2] (setting [9]); 32% in data set [2] (setting [10]); 28% in data set [2] (setting [6]); 33% in data set [2] (setting [7]); 57% in data set [3] (setting [11]); 57% in data set [3] (setting [8]). The MS Dog THalf in data set [4] came to 97 min. The MS Human THalf in data set [5] stood at 320 min.

Take `O=C(Cc1ccccn1)N1CCc2ccc(-c3ccc(C(F)(F)F)cc3)cc2C1` [IX-29, 2-(pyridin-2-yl)-1-(7-(4-(trifluoromethyl)phenyl)-3,4-dihydroisoquinolin-2(1H)-yl)ethanone]: the MS Rat THalf in data set [1] worked out at 48 min. Also, the inhibition at 1 µM in data set [2] (setting [9]) was found to be 10%; in data set [2] (setting [10]), 12%; in data set [2] (setting [6]), 10%; in data set [2] (setting [7]), 12%; in data set [3] (setting [11]), 45%; in data set [3] (setting [8]), 45%. In addition, in data set [4], the MS Dog THalf came to 138 min. Moreover, the MS Human THalf in data set [5] came to 33 min.

The compound `O=C(c1ncc[nH]1)N1CCc2ccc(-c3ccc(C(F)(F)F)cc3)cc2C1` [IX-57, (1H-imidazol-2-yl)(7-(4-(trifluoromethyl)phenyl)-3,4-dihydroisoquinolin-2(1H)-yl)methanone] had an MS Rat THalf in data set [1] of 132 min. Further, the inhibition at 1 µM is 10% in data set [2] (setting [9]); 6% in data set [2] (setting [10]); 10% in data set [2] (setting [6]); 6% in data set [2] (setting [7]); 44% in data set [3] (setting [11]); 44% in data set [3] (setting [8]). The MS Dog THalf in data set [4] came to 245 min. In addition, the MS Human THalf in data set [5] turned out to be 159 min.
